According to paper PMC10866072, “Design, synthesis, molecular modelling and biological evaluation of novel 6-amino-5-cyano-2-thiopyrimidine derivatives as potent anticancer agents against leukemia and apoptotic inducers” (Journal of Enzyme Inhibition and Medicinal Chemistry, 2024):

Key:
[1] = tested on: SW-620; format: cell-based; conditions: Homo sapiens, one dose 10^-5 M, 48 h
[2] = tested on: SNB-75; format: cell-based; conditions: Homo sapiens, one dose 10^-5 M, 48 h
[3] = tested on: U251; format: cell-based; conditions: Homo sapiens, U-251, one dose 10^-5 M, 48 h
[4] = tested on: A549/ATCC; format: cell-based; conditions: Homo sapiens, one dose 10^-5 M, 48 h
[5] = tested on: SF-539; format: cell-based; conditions: Homo sapiens, one dose 10^-5 M, 48 h
[6] = tested on: HS 578T; format: cell-based; conditions: Homo sapiens; one dose 10^-5 M, 48 h; HS 578T; read-out: % growth
[7] = tested on: CCRF-CEM; format: cell-based; conditions: Homo sapiens, one dose 10^-5 M, 48 h
[8] = tested on: MOLT-4; format: cell-based; conditions: Homo sapiens, one dose 10^-5 M, 48 h, read-out: % growth
[9] = tested on: OVCAR-4; format: cell-based; conditions: Homo sapiens, one dose 10^-5 M, 48 h
[10] = tested on: 786-0; format: cell-based; conditions: Homo sapiens, one dose 10^-5 M, 48 h
[11] = tested on: full NCI 60 cell lines panel
[12] = tested on: IGROV1; format: cell-based; conditions: Homo sapiens, IGROV-1, one dose 10^-5 M, 48 h, read-out: % growth
[13] = tested on: UACC-257; format: cell-based; conditions: Homo sapiens, one dose 10^-5 M, 48 h
[14] = tested on: LOX IMVI; format: cell-based; conditions: Homo sapiens, one dose 10^-5 M, 48 h, read-out: % growth
[15] = tested on: HCT-116; format: cell-based; conditions: Homo sapiens, one dose 10^-5 M, 48 h, read-out: % growth
[16] = tested on: UACC-62; format: cell-based; conditions: Homo sapiens, one dose 10^-5 M, 48 h
[17] = tested on: HCC-2998; format: cell-based; conditions: Homo sapiens, one dose 10^-5 M, 48 h
[18] = tested on: RPMI-8226; format: cell-based; conditions: Homo sapiens, one dose 10^-5 M, 48 h
[19] = tested on: BT-549; format: cell-based; conditions: Homo sapiens, one dose 10^-5 M, 48 h
[20] = tested on: ACHN; format: cell-based; conditions: Homo sapiens, one dose 10^-5 M, 48 h
[21] = tested on: SF-295; format: cell-based; conditions: Homo sapiens, one dose 10^-5 M, 48 h
[22] = tested on: SK-MEL-5; format: cell-based; conditions: Homo sapiens, one dose 10^-5 M, 48 h, read-out: % growth
[23] = tested on: SF-268; format: cell-based; conditions: Homo sapiens, one dose 10^-5 M, 48 h, read-out: % growth
[24] = tested on: OVCAR-8; format: cell-based; conditions: Homo sapiens, one dose 10^-5 M, 48 h
[25] = tested on: PC-3; format: cell-based; conditions: Homo sapiens, one dose 10^-5 M, 48 h
[26] = tested on: SK-MEL-2; format: cell-based; conditions: Homo sapiens, one dose 10^-5 M, 48 h
[27] = tested on: OVCAR-3; format: cell-based; conditions: Homo sapiens, one dose 10^-5 M, 48 h
[28] = tested on: SK-MEL-28; format: cell-based; conditions: Homo sapiens, one dose 10^-5 M, 48 h
[29] = tested on: COLO 205; format: cell-based; conditions: Homo sapiens, one dose 10^-5 M, 48 h
[30] = tested on: HL-60(TB); format: cell-based; conditions: Homo sapiens, one dose 10^-5 M, 48 h
[31] = tested on: HOP-92; format: cell-based; conditions: Homo sapiens, one dose 10^-5 M, 48 h
[32] = tested on: DU-145; format: cell-based; conditions: Homo sapiens, one dose 10^-5 M, 48 h
[33] = tested on: K-562; format: cell-based; conditions: Homo sapiens, K562, one dose 10^-5 M, 48 h
[34] = tested on: HT29; format: cell-based; conditions: Homo sapiens, HT-29, one dose 10^-5 M, 48 h
[35] = tested on: SR; format: cell-based; conditions: Homo sapiens, one dose 10^-5 M, 48 h
[36] = tested on: NCI-H460; format: cell-based; conditions: Homo sapiens, one dose 10^-5 M, 48 h, read-out: % growth
[37] = tested on: HCT-15; format: cell-based; conditions: Homo sapiens, one dose 10^-5 M, 48 h, read-out: % growth
[38] = tested on: NCI-H226; format: cell-based; conditions: Homo sapiens, one dose 10^-5 M, 48 h
[39] = tested on: EKVX; format: cell-based; conditions: Homo sapiens, one dose 10^-5 M, 48 h
[40] = tested on: NCI-H522; format: cell-based; conditions: Homo sapiens, one dose 10^-5 M, 48 h
[41] = tested on: UO-31; format: cell-based; conditions: Homo sapiens, UO-31, 48 h, one dose 10^-5 M, 48 h
[42] = tested on: MDA-MB-435; format: cell-based; conditions: Homo sapiens, one dose 10^-5 M, 48 h, read-out: % growth
[43] = tested on: HOP-62; format: cell-based; conditions: Homo sapiens, one dose 10^-5 M, 48 h
[44] = tested on: SNB-19; format: cell-based; conditions: Homo sapiens, one dose 10^-5 M, 48 h, read-out: % growth
[45] = tested on: MALME-3M; format: cell-based; conditions: Homo sapiens, one dose 10^-5 M, 48 h
[46] = tested on: NCI-H23; format: cell-based; conditions: Homo sapiens, one dose 10^-5 M, 48 h, read-out: % growth
[47] = tested on: MDA-MB-468; format: cell-based; conditions: Homo sapiens, one dose 10^-5 M, 48 h
[48] = tested on: NCI/ADR-RES; format: cell-based; conditions: Homo sapiens, one dose 10^-5 M, 48 h
[49] = tested on: TK-10; format: cell-based; conditions: Homo sapiens, one dose 10^-5 M, 48 h
[50] = tested on: CAKI-1; format: cell-based; conditions: Homo sapiens, CAKI-1, 48 h, one dose 10^-5 M, 48 h
[51] = tested on: T-47D; format: cell-based; conditions: Homo sapiens, T47D, one dose 10^-5 M, 48 h, read-out: % growth
[52] = tested on: SK-OV-3; format: cell-based; conditions: Homo sapiens, one dose 10^-5 M, 48 h
[53] = tested on: KM12; format: cell-based; conditions: Homo sapiens, one dose 10^-5 M, 48 h
[54] = tested on: MCF7; format: cell-based; conditions: Homo sapiens, one dose 10^-5 M, 48 h, read-out: % growth
[55] = tested on: SN12C; format: cell-based, human; conditions: Homo sapiens, one dose 10^-5 M, 48 h
[56] = tested on: A498; format: cell-based; conditions: Homo sapiens, one dose 10^-5 M, 48 h
[57] = tested on: OVCAR-5; format: cell-based; conditions: Homo sapiens, one dose 10^-5 M, 48 h
[58] = tested on: M14; format: cell-based; conditions: Homo sapiens, one dose 10^-5 M, 48 h
[59] = tested on: MDA-MB-231/ATCC; format: cell-based; conditions: Homo sapiens, one dose 10^-5 M, 48 h

**Q.** Which % growth at 10 µM [1] does the source give for `CN(C)c1ccc(-c2nc(S)nc(N)c2C(=N)NN=Cc2ccccc2)cc1` [Compound 4a, 4-Amino-6-[4-(dimethylamino)phenyl]-2-mercapto-N'-[phenylmethylene] pyrimidine-5-carboximidohydrazide] here?
**A.** 108%

**Q.** And the % growth at 10 µM [2]?
**A.** 101%

**Q.** What about the % growth at 10 µM [3] of the same molecule?
**A.** 111%

**Q.** And the % growth at 10 µM [4]?
**A.** 103%

**Q.** What about the % growth at 10 µM [5] of the same molecule?
**A.** 106%

**Q.** What about the activity at 10 µM [6] of the same molecule?
**A.** 113%

**Q.** And the % cell growth at 10 µM [7]?
**A.** 82%

**Q.** What about the activity at 10 µM [8] of the same molecule?
**A.** 106%

**Q.** And the % growth at 10 µM [9]?
**A.** 101%

**Q.** What about the % growth at 10 µM [10] of the same molecule?
**A.** 102%

**Q.** What about the activity at 10 µM ([11]; Homo sapiens, 60 cell, 48 h, read-out: Mean % growth) of the same molecule?
**A.** 104%

**Q.** And the “activity on all 60 cancer cell lines tested (in words)” value ([11]; one dose)?
**A.** weak activity

**Q.** And the activity at 10 µM [12]?
**A.** 111%

**Q.** And the percent cell growth at 10 µM [13]?
**A.** 106%

**Q.** What about the activity at 10 µM [14] of the same molecule?
**A.** 98.3%

**Q.** And the activity at 10 µM [15]?
**A.** 110%

**Q.** And the % growth at 10 µM [16]?
**A.** 97.9%

**Q.** What about the % growth at 10 µM [17] of the same molecule?
**A.** 113%

**Q.** And the % growth at 10 µM [18]?
**A.** 89.8%

**Q.** What about the % cell growth at 10 µM [19] of the same molecule?
**A.** 103%

**Q.** And the % growth at 10 µM [20]?
**A.** 101%

**Q.** And the % cell growth at 10 µM [21]?
**A.** 104%

**Q.** And the activity at 10 µM [22]?
**A.** 103%

**Q.** And the activity at 10 µM [23]?
**A.** 104%

**Q.** What about the % growth of cells at 10 µM [24] of the same molecule?
**A.** 115%

**Q.** And the percent cell growth at 10 µM [25]?
**A.** 85.1%

**Q.** And the % growth at 10 µM [26]?
**A.** 108%

**Q.** What about the % growth at 10 µM [27] of the same molecule?
**A.** 102%

**Q.** What about the % cell growth at 10 µM [28] of the same molecule?
**A.** 105%

**Q.** What about the % growth at 10 µM [29] of the same molecule?
**A.** 140%

**Q.** And the % growth at 10 µM [30]?
**A.** 94.7%

**Q.** What about the % growth at 10 µM [31] of the same molecule?
**A.** 114%

**Q.** What about the % growth at 10 µM [32] of the same molecule?
**A.** 104%

**Q.** And the % growth at 10 µM [33]?
**A.** 107%

**Q.** And the % growth at 10 µM [34]?
**A.** 101%

**Q.** And the percent cell growth at 10 µM [35]?
**A.** 104%

**Q.** What about the activity at 10 µM [36] of the same molecule?
**A.** 104%

**Q.** What about the activity at 10 µM [37] of the same molecule?
**A.** 99.9%

**Q.** And the % growth at 10 µM [38]?
**A.** 98.6%

**Q.** And the % cell growth at 10 µM [39]?
**A.** 96.3%

**Q.** And the % growth at 10 µM [40]?
**A.** 99.4%

**Q.** And the % cell growth at 10 µM [41]?
**A.** 75%

**Q.** What about the activity at 10 µM [42] of the same molecule?
**A.** 99.4%

**Q.** And the % growth at 10 µM [43]?
**A.** 109%

**Q.** And the activity at 10 µM [44]?
**A.** 102%

**Q.** And the % growth at 10 µM [45]?
**A.** 105%

**Q.** What about the activity at 10 µM [46] of the same molecule?
**A.** 104%

**Q.** What about the percent cell growth at 10 µM [47] of the same molecule?
**A.** 117%

**Q.** What about the cell growth percent at 10 µM [48] of the same molecule?
**A.** 104%

**Q.** And the % cell growth at 10 µM [49]?
**A.** 105%

**Q.** What about the % growth at 10 µM [50] of the same molecule?
**A.** 99%

**Q.** And the activity at 10 µM [51]?
**A.** 105%

**Q.** And the % growth at 10 µM [52]?
**A.** 118%

**Q.** And the % growth at 10 µM [53]?
**A.** 107%

**Q.** What about the activity at 10 µM [54] of the same molecule?
**A.** 93.1%

**Q.** What about the % growth at 10 µM [55] of the same molecule?
**A.** 103%

**Q.** What about the % growth at 10 µM [56] of the same molecule?
**A.** 107%

**Q.** What about the percent cell growth at 10 µM [57] of the same molecule?
**A.** 111%

**Q.** And the % growth at 10 µM [58]?
**A.** 106%

**Q.** And the % growth at 10 µM [59]?
**A.** 109%
